Our source for the Ki and melting point values is patent US6653300B2, “Pyrazole compounds useful as protein kinase inhibitors” (Vertex Pharmaceuticals Incorporated, priority 2000, dated 2003).

Where two headings read alike, the source gives them in different places. A value given as a limit tells only on which side of the number the result lay.

What is called Ki is a dissociation constant, usually derived from enzyme kinetics or from competition with a known ligand. By melting point is commonly meant the temperature of the solid-liquid transition.

One data set concerns the target T1, Aurora-2 (Homo sapiens, UniProt O14965).
T1 sequence (O14965 1-403): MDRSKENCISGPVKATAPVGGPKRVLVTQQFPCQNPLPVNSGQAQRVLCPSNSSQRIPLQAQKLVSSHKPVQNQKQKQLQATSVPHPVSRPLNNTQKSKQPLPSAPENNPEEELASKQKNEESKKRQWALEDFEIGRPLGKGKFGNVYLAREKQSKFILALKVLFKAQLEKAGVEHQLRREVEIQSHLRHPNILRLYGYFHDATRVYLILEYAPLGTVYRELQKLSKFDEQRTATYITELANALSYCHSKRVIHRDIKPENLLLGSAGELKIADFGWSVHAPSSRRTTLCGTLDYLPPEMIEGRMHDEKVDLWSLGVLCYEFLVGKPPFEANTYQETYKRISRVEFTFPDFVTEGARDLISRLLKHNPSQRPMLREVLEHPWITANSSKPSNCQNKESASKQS
In words: Ki determination for the inhibition of Aurora-2 (coupled enzyme assay). As to conditions: 70 nM Aurora-2, 30° C. The class given is biochemical. The method in brief:
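Ki came from reaction rates plotted against inhibitor concentration, with rates taken as A340 decrease over 5 min at 30° C. Enzyme (70 nM final) was added after 10 min compound preincubation; stock buffer held […], 800 μM LRRASLG, PK/LDH coupling, pH 7.5.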

The target of the next data set is T2, GSK-3β (AA 1-420) (Homo sapiens, UniProt P49841).
T2 construct: GSK-3β (AA 1-420)
In words: Ki determination for the inhibition of GSK-3 (coupled enzyme system). The class given is biochemical. The following applies: 20 μM ATP, 20 nM GSK-3β, 30° C. An outline of the steps:
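GSK-3β (AA 1-420, 20 nM) was run in a pyruvate kinase/LDH-coupled NADH assay in 100 mM HEPES pH 7.5, 10 mM MgCl2, 25 mM NaCl, 1 mM DTT, 1.5% DMSO, with 300 μM phosphopeptide substrate. Compound (0.002–30 μM) was preincubated 10 min at 30° C, then 20 μM ATP was added.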

A further data set deals with CDK-2/Cyclin A (Homo sapiens, UniProt P24941). In words: CDK-2 inhibition assay (coupled enzyme assay). It is filed as biochemical. As to conditions: 25 nM CDK-2/Cyclin A, 30° C. As to the method: Compounds were screened in the following manner for their ability to inhibit CDK-2 using a standard coupled enzyme assay (Fox et al (1998) Protein Sci 7, 2249).
To an assay stock buffer solution containing 0.1M HEPES 7.5, 10 mM MgCl2, 1 mM DTT, 25 mM NaCl, 2.5 mM phosphoenolpyruvate, […], 30 mg/ml pyruvate kinase, 10 mg/ml lactate dehydrogenase, 100 mM ATP, and 100 μM peptide ([…], American Peptide, Sunnyvale, Calif.) was added a DMSO solution of a compound of the present invention to a final concentration of 30 μM. The resulting mixture was incubated at 30° C. for 10 min.
The reaction was initiated by the addition of 10 μL of CDK-2/Cyclin A stock solution to give a final concentration of 25 nM in the assay. The rates of reaction were obtained by monitoring absorbance at 340 nm over a 5-minute read time at 30° C. using a BioRad Ultramark plate reader (Hercules, Calif.). The Ki values were determined from the rate data as a function of inhibitor concentration.

The next data set deals with T3, human Src kinase (Homo sapiens, UniProt P12931).
T3 construct: full length recombinant human Src kinase (from Upstate Biotechnology, cat. no. 14-117); purchased Upstate Biotechnology 14-117; host or cells: baculo viral cells
In words: SRC inhibition assay (radioactivity-based or spectrophotometric assay). It is filed as biochemical. As to conditions: recombinant human Src kinase, assay A or B. The method in brief:
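Full-length recombinant human Src from baculovirus was used. In the radiometric format, enzyme was preincubated 10 min at 30 °C, the reaction was started with ^33P-ATP and run 20 min, then TCA-quenched and filter-counted. The alternative format monitored poly Glu-Tyr phosphorylation by NADH-coupled A340 rate. Ki came from competitive-inhibition fits.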

Another data set deals with AKT-3 (Homo sapiens, UniProt Q9Y243). In words: AKT inhibition assay (coupled enzyme assay). As to conditions: 45 nM AKT, 170 μM ATP, 30° C. The class given is biochemical. How it is done: Compounds were screened for their ability to inhibit AKT using a standard coupled enzyme assay (Fox et al., Protein Sci., (1998) 7, 2249). Assays were carried out in a mixture of 100 mM HEPES 7.5, 10 mM MgCl2, 25 mM NaCl, 1 mM DTT and 1.5% DMSO. Final substrate concentrations in the assay were 170 μM ATP (Sigma Chemicals) and 200 μM peptide (RPRAATF, American Peptide, Sunnyvale, Calif.). Assays were carried out at 30° C. and 45 nM AKT. Final concentrations of the components of the coupled enzyme system were 2.5 mM phosphoenolpyruvate, 300 μM NADH, 30 μg/ML pyruvate kinase and 10 μg/ml lactate dehydrogenase.
An assay stock buffer solution was prepared containing all of the reagents listed above, with the exception of AKT, DTT, and the test compound of interest. 56 μl of the stock solution was placed in a 384 well plate followed by addition of 1 μl of 2 mM DMSO stock containing the test compound (final compound concentration 30 μM). The plate was preincubated for about 10 minutes at 30° C. and the reaction initiated by addition of 10 μl of enzyme (final concentration 45 nM) and 1 mM DTT. Rates of reaction were obtained using a BioRad Ultramark plate reader (Hercules, Calif.) over a 5 minute read time at 30° C.

T2 sequence (P49841 whole entry, the tested form may be a part): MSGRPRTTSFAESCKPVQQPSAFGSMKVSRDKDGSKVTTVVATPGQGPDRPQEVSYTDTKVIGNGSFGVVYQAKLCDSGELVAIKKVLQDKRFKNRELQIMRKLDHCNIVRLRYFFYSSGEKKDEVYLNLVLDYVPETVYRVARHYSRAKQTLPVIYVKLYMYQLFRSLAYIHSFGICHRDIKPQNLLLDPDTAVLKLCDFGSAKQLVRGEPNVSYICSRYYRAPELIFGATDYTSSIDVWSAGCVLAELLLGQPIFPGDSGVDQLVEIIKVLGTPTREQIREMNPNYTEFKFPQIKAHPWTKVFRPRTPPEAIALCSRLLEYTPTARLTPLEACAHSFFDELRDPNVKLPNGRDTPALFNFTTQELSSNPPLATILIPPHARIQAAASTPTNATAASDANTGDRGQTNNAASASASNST
Chain of AKT-3 (Q9Y243 whole entry, species assumed): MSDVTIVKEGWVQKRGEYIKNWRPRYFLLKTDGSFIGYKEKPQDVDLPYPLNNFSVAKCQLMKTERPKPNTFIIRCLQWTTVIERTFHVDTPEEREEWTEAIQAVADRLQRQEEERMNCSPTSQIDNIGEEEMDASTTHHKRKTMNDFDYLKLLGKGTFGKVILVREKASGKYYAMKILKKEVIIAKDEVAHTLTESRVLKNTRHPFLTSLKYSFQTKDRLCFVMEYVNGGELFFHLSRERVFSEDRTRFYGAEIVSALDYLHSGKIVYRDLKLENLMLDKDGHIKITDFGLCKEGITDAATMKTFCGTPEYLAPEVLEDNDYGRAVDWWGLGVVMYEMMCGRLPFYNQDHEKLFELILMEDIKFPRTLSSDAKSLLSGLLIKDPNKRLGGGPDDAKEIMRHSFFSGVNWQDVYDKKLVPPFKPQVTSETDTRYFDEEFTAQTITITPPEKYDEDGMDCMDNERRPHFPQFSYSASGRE
T3 sequence (P12931 whole entry): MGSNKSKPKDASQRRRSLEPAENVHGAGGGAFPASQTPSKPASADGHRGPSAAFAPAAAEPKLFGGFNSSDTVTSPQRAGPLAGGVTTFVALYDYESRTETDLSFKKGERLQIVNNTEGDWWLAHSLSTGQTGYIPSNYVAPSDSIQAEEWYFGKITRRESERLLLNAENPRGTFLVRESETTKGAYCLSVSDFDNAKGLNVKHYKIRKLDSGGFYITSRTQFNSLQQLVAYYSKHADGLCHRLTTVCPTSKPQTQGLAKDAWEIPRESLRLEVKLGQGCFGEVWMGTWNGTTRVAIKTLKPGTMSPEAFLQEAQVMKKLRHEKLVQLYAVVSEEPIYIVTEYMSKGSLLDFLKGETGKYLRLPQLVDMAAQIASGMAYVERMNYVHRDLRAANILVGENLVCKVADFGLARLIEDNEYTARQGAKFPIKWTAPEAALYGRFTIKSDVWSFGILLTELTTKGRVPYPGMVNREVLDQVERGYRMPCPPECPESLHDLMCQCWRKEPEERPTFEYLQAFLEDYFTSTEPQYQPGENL

The compound `Cc1cccc(Sc2nc(Nc3cc(C)[nH]n3)c3ccccc3n2)c1` [IIa-14, [2-(3-Methylphenylsulfanyl)-quinazolin-4-yl]-(5-methyl-2H-pyrazol-3-yl)-amine] registered a melting point of 249 to 250 °C. The Ki at Aurora-2 was below 100 nM. In addition, the Ki on GSK-3β (AA 1-420) lay within 100 to 1000 nM. The compound also displayed a Ki on CDK-2/Cyclin A below 1000 nM.

Take `CC(=O)Nc1ccc(Sc2nc(Nc3cc(C)[nH]n3)c3ccccc3n2)cc1` [IIa-38, [2-(4-Acetamidophenylsulfanyl)-quinazolin-4-yl]-(5-methyl-2H-pyrazol-3-yl)-amine]: the inhibitory constant (Ki) at Aurora-2 is below 100 nM; on GSK-3β (AA 1-420), 100 to 1000 nM; on CDK-2/Cyclin A, 1000 to 20000 nM.

For `COc1cccc2c(Nc3cc(C)n[nH]3)nc(Sc3ccc(NC(C)=O)cc3)nc12` [IIa-44, [2-(4-Acetamidophenylsulfanyl)-8-methoxy-quinazolin-4-yl]-(5-methyl-2H-pyrazol-3-yl)-amine], the melting point was 247 to 249 °C. On Aurora-2, this compound displayed a Ki below 100 nM. In addition, the Ki at human Src kinase (read-out: Ki value for SRC) was 1000 to 6000 nM. Further, the Ki on CDK-2/Cyclin A was in the range of 1000 to 20000 nM.

On to `CC(=O)Nc1ccc(Sc2nc(Nc3cc(C)[nH]n3)c3cccc(O)c3n2)cc1` [IIa-52, [2-(4-Acetamido-phenylsulfanyl)-8-hydroxyquinazolin-4-yl]-(5-methyl-2H-pyrazol-3-yl)-amine], for which the melting point lay in the range of 258 to 259 °C. The Ki at Aurora-2 was below 100 nM. For the same compound, the Ki on GSK-3β (AA 1-420) lay in the range of 1000 to 7000 nM. In addition, the Ki at CDK-2/Cyclin A fell in the range of 1000 to 20000 nM.

Regarding `CCCS(=O)(=O)Nc1ccc(Sc2nc(Nc3cc(C)n[nH]3)c3ccccc3n2)cc1` [IIa-54, (5-Methyl-2H-pyrazol-3-yl)-{2-[4-(propane-1-sulfonylamino)-phenylsulfanyl]-quinazolin-4-yl}-amine], the melting point lay in the range of 272 to 273 °C. Besides, on Aurora-2, the Ki is below 100 nM. Also, on GSK-3β (AA 1-420), the Ki was in the range of 100 to 1000 nM. In addition, the Ki at human Src kinase (read-out: Ki value for SRC) is 1000 to 6000 nM. The compound also yielded a Ki on CDK-2/Cyclin A of 1000 to 20000 nM.

Take `c1ccc2c(Nc3cc(C4CC4)[nH]n3)nc(Nc3ccc4cc[nH]c4c3)nc2c1` [IIc-22, (5-Cyclopropyl-2H-pyrazol-3-yl)-[2-(1H-indol-6-ylamino)-quinazolin-4-yl]-amine]: the Ki on AKT-3 was 1000 to 20000 nM; on Aurora-2, below 100 nM; at GSK-3β (AA 1-420), below 100 nM; at human Src kinase (read-out: Ki value on SRC) it was below 100 nM.

For `N#CCc1ccc(Nc2nc(Nc3cc(C4CC4)[nH]n3)c3ccccc3n2)cc1` [IIc-31, [2-(4-Cyanomethylphenylamino)-quinazolin-4-yl]-(5-cyclopropyl-2H-pyrazol-3-yl)-amine], the Ki on AKT-3 was 1000 to 20000 nM; on Aurora-2, below 100 nM; at GSK-3β (AA 1-420), below 100 nM; on human Src kinase (read-out: Ki value on SRC) it was below 100 nM.

Consider `c1ccc2c(Nc3cc(C4CC4)[nH]n3)nc(Nc3ccc4[nH]ncc4c3)nc2c1` [IIc-37, (5-Cyclopropyl-2H-pyrazol-3-yl)-[2-(1H-indazol-5-ylamino)-quinazolin-4-yl]-amine], for which the Ki on AKT-3 is 1000 to 20000 nM; at Aurora-2, below 100 nM; on GSK-3β (AA 1-420), below 100 nM; at human Src kinase (read-out: Ki value on SRC) it was below 100 nM.

Take `COC(=O)c1cccc(Nc2nc(Nc3cc(C4CC4)[nH]n3)c3ccccc3n2)c1` [IIc-39, (5-Cyclopropyl-2H-pyrazol-3-yl)-[2-(3-methoxycarbonylphenylamino)-quinazolin-4-yl]-amine]: the melting point fell in the range of 228 to 231 °C. At AKT-3, the Ki lay in the range of 1000 to 20000 nM. Besides, the Ki at Aurora-2 was below 100 nM. Further, the Ki on GSK-3β (AA 1-420) was below 100 nM. Besides, the Ki at human Src kinase (read-out: Ki value on SRC) was below 100 nM.

For `Cc1cccc(Nc2nc(Nc3cc(C4CC4)[nH]n3)c3ccccc3n2)c1C` [IIc-42, (5-Cyclopropyl-2H-pyrazol-3-yl)-[2-(2,3-dimethylphenylamino)-quinazolin-4-yl]-amine], the melting point lay in the range of 241 to 242 °C. This compound also displayed a Ki at AKT-3 of 1000 to 20000 nM. For the same compound, the Ki on Aurora-2 was below 100 nM. The Ki at GSK-3β (AA 1-420) was below 100 nM. The Ki on human Src kinase (read-out: Ki value on SRC) was below 100 nM.

`COc1ccc(Nc2nc(Nc3cc(C4CC4)[nH]n3)c3ccccc3n2)cc1OC` [IIc-43, (5-Cyclopropyl-2H-pyrazol-3-yl)-[2-(3,4-dimethoxyphenylamino)-quinazolin-4-yl]-amine] gave a melting point of 144 °C. Besides, the Ki at Aurora-2 was below 100 nM. The compound further yielded a Ki on GSK-3β (AA 1-420) of 100 to 1000 nM. The Ki on human Src kinase (read-out: Ki value on SRC) was below 100 nM.

The compound `COc1cccc(Nc2nc(Nc3cc(C4CC4)[nH]n3)c3ccccc3n2)c1` [IIc-44, (5-Cyclopropyl-2H-pyrazol-3-yl)-[2-(3-methoxyphenylamino)-quinazolin-4-yl]-amine] gave a melting point of 207 to 211 °C. The same compound yielded a Ki on Aurora-2 below 100 nM. On GSK-3β (AA 1-420), this compound returned a Ki of 100 to 1000 nM. Also, the Ki on human Src kinase (read-out: Ki value on SRC) was below 100 nM.

Compound `Cc1ccc(Cl)c(Nc2nc(Nc3cc(C)[nH]n3)c3ccccc3n2)c1` [IIc-51, [2-(2-Chloro-5-methylphenylamino)-quinazolin-4-yl]-(5-methyl-2H-pyrazol-3-yl)-amine] gave a melting point of 246 to 247 °C. Further, the inhibition constant (Ki) at Aurora-2 was below 100 nM. On GSK-3β (AA 1-420), the Ki fell in the range of 100 to 1000 nM. Further, on human Src kinase (read-out: Ki value on SRC), the Ki is below 100 nM.

The compound `Cc1cc(Nc2nc(Nc3ccc(N)cc3)nc3ccccc23)n[nH]1` [IIc-66, [2-(4-Aminophenylamino)-quinazolin-4-yl]-(5-methyl-2H-pyrazol-3-yl)-amine] gave a melting point of 164 to 167 °C. The Ki on Aurora-2 was 100 to 1000 nM. At GSK-3β (AA 1-420), this compound returned a Ki of 100 to 1000 nM. Further, the Ki at human Src kinase (read-out: Ki value for SRC) lay within 1000 to 6000 nM.

Turning to `Cc1cc(Nc2nc(Nc3ccc(NC(=O)C(C)C)cc3)nc3ccccc23)n[nH]1` [IIc-68, [2-(4-Isobutyrylamino-phenylamino)-quinazolin-4-yl]-(5-methyl-2H-pyrazol-3-yl)-amine], the melting point fell in the range of 176 to 179 °C. Besides, on Aurora-2, the inhibitory constant (Ki) was below 100 nM. On GSK-3β (AA 1-420), this compound showed a Ki of 1000 to 7000 nM. Further, at human Src kinase (read-out: Ki value for SRC), the Ki is 1000 to 6000 nM.

In turn, `c1ccc(OCc2nc(Nc3cc(C4CC4)[nH]n3)c3ccccc3n2)cc1` [IId-1, (5-Cyclopropyl-2H-pyrazol-3-yl)-(2-phenoxymethyl-quinazolin-4-yl)-amine] came in with a melting point of 265 to 267 °C. On Aurora-2, this compound gave a Ki below 100 nM. Further, at GSK-3β (AA 1-420), the Ki is below 100 nM. For the same compound, on human Src kinase (read-out: Ki value on SRC), the Ki is below 100 nM.

In turn, `c1ccc(COCc2nc(Nc3cc(C4CC4)[nH]n3)c3ccccc3n2)cc1` [IId-2, (2-Benzyloxymethyl-quinazolin-4-yl)-(5-cyclopropyl-2H-pyrazol-3-yl)-amine] came in with a melting point of 211 to 213 °C. This compound yielded a Ki on Aurora-2 below 100 nM. Moreover, the Ki on GSK-3β (AA 1-420) lay in the range of 100 to 1000 nM. In addition, the Ki at human Src kinase (read-out: Ki value on SRC) is below 100 nM.
